The subject of data set [1] is C57BL/6 mice. As to the kind of experiment: Organ and body weights. The data set is classed as in vivo, mouse. The following applies: 24 h dose-response study.
In data set [2] the test system is liver of C57BL/6 mice. As to the kind of experiment: Liver histopathology. It counts as in vivo, mouse.
Data set [3] deals with liver of C57BL/6 mice. Kind of data set: Hepatic triglyceride measurement. The data set is classed as in vivo, mouse.
Data set [4] deals with AhR. The following applies: ref Craft et al. 2002; Honkakoski et al. 2003; Tabb et al. 2004; Kopec et al. 2010b; cited from earlier work.
Data set [5] deals with hepatic gene expression. The following applies: liver, 300 mg/kg PCB153; ref Kopec et al. 2010b; cited from earlier work.
The conditions of data set [6]: liver, after seven days; ref Kopec et al. 2010b; cited from earlier work.
For data set [7], the system named is liver. To be noted: when co-treated with TCDD; ref Mitchell et al. 2010; cited from earlier work.
The conditions of data set [8]: ref Diliberto et al. 1999; cited from earlier work.

SMILES strings stand for the structures.

In the case of `Clc1cc(Cl)c(-c2cc(Cl)c(Cl)cc2Cl)cc1Cl` [PCB153, 2,2′,4,4′,5,5′-hexachlorobiphenyl], in data set [1], the “relative liver weight (RLW)” value was “increased RLW only at 100 and 300 mg/kg”. Besides, in data set [2] (time course study), the hepatic inflammation entry is listed as “did not elicit inflammation”, the hepatocellular hypertrophy entry is “mild to moderate centrilobular hypertrophy” and the hepatocellular vacuolization result is “vacuolization comparable to levels observed in vehicles”. In addition, the hepatic triglycerides entry in data set [3] is listed as “no effect”. The “AhR binding or activation” value in data set [4] is listed as “does not bind or activate”. Moreover, in data set [5], the “down-regulation of Elovl5” value is ~ 2 fold. Further, the “hepatic level at 168 h” value in data set [6] was “dramatically decreased”.
As for `Clc1cnc(Oc2ccc(Oc3ncc(Cl)cc3Cl)cc2)c(Cl)c1` [TCPOBOP], the “increase in hepatic proliferation” value in data set [7] is listed as 30–50%.
With `Clc1cc2c(cc1Cl)Oc1cc(Cl)c(Cl)cc1O2` [TCDD, 2,3,7,8-tetrachlorodibenzo-p-dioxin], the “relative liver weight (RLW)” value in data set [1] was “comparable increases in RLW in all but the lowest dose groups”. The “hepatic inflammation / cell infiltration” value in data set [2] (24 h dose-response, TCDD 15, 30, 45 μg/kg, MIX three highest combinations) is on record as “minimal multifocal inflammation”. Moreover, in data set [2] (time course study), the hepatic inflammation entry is listed as “moderate multifocal inflammation” and the hepatocellular vacuolization result is recorded as “marked hepatocellular vacuolization”. Also, the hepatic triglycerides result in data set [3] is “significant increases”. Moreover, the “hepatic TCDD accumulation, fold lower in Cyp1a2 null mice compared to wild types” value in data set [8] was 10 fold. Further, in data set [6], the “hepatic level at 168 h” value is “more modest reductions”.
